Laboratory results taken from patent US12697326B2, “Methods of treating hepatic encephalopathy” (SALIX PHARMACEUTICALS, INC., priority 2008, dated 2026).
“And” between values parts separate entries of the source, which are not always exact repeats. Equal values may be shown once.

Experiments:
[1] = system: all-cause hospitalization in subjects with HE; assay: All-cause hospitalization, first study; format: in vivo, human
[2] = system: HE-caused hospitalization in subjects with HE; assay: HE-caused hospitalization, first study; format: in vivo, human
Excerpt: FIG. 5 illustrates time to first HE-caused hospitalizations by treatment group in the first study. […] Note for FIG. 10, the survival distribution estimate on y-axis represents the proportion of subjects without HE-caused hospitalizations. Dashed line represents rifaximin group and solid line represents placebo group. Open circles and open triangles represent censored subjects. Subjects who discontinued prior to hospitalization were censored at the time of discontinuation.

[3] = system: breakthrough overt HE episode in subjects with HE; assay: Breakthrough overt HE episodes, second study (open-label treatment extension); format: in vivo, human
Protocol: Unlike the first study, subjects were not required to withdraw from the study after experiencing a breakthrough overt HE episode.
Conn scores and asterixis grades were assessed during the course of the study.
Therefore, the incidence of breakthrough overt HE over time during rifaximin therapy was evaluated. Table 24 presents breakthrough overt HE episodes by total number of HE episodes during the course of the study.

[4] = system: hospitalization in subjects with HE; assay: Hospitalizations, second study; format: in vivo, human
Excerpt: Normalizing for subject exposure, this represents a hospitalization rate of 0.60 event/PEY. A total of 59 were hospitalized due HE episodes (e.g., HE-caused). Normalizing for subject exposure, this represents an HE-caused hospitalization rate of 0.29 event/PEY. […] All subjects were capable of worsening over time, and 24/266 subjects (9.0%) did so by 1 or 2 grades.

clinical = conditions: human, in vivo
[5] = Continuing Rifaximin N = 70, second study
[6] = New Rifaximin N = 196, second study
[7] = Rifaximin N = 266 (all rifaximin), second study
[8] = first study placebo subjects crossed over to rifaximin in second study
[9] = second study, all rifaximin, up to 680 days
[10] = second study, continuing rifaximin group, up to 680 days
[11] = second study, new rifaximin group, up to 680 days

## CO[C@H]1/C=C/O[C@@]2(C)Oc3c(C)c(O)c4c(O)c(c5c(nc6cc(C)ccn65)c4c3C2=O)NC(=O)/C(C)=C\C=C\[C@H](C)[C@H](O)[C@@H](C)[C@@H](O)[C@@H](C)[C@H](OC(C)=O)[C@@H]1C [Rifaximin]
[1]
  reduction in risk of all-cause hospitalization compared with placebo: 30%
[1]; rifaximin group
  subjects with all-cause hospitalization (of 140): 46
[1]; rifaximin group, normalized for exposure
  all-cause hospitalization rate: 0.90 events/PEY
[2]; 6-month treatment period
  reduction in risk of HE-caused hospitalization compared with placebo: 56%
[2]; rifaximin group
  HE-caused hospitalization rate: 0.30 events/PEY
  subjects with HE-caused hospitalizations (of 140): 15
[3]; [5]
  Subjects with total number of HE episodes during the study: 1, %: (14.3) %
  Subjects with total number of HE episodes during the study: 2, %: (8.6) %
  Subjects with total number of HE episodes during the study: 4, %: (1.4) %
  Subjects with total number of HE episodes during the study: 6, %: (1.4) %
  Subjects with ≥1 breakthrough overt HE episode, %: (25.7) %
[3]; [6]
  Subjects with total number of HE episodes during the study: 1, %: (17.3) %
  Subjects with total number of HE episodes during the study: 2, %: (6.1) %
  Subjects with total number of HE episodes during the study: 3, %: (2.0) %
  Subjects with total number of HE episodes during the study: 4, %: (0.5) %
  Subjects with total number of HE episodes during the study: 5, %: (0.5) %
  Subjects with total number of HE episodes during the study: 10, %: (1.0) %
  Subjects with ≥1 breakthrough overt HE episode, %: (27.6) %
[3]; [7]
  Subjects with total number of HE episodes during the study: 1, value in parentheses: (16.5) 90
  Subjects with total number of HE episodes during the study: 2, value in parentheses: (6.8) 90
  Subjects with total number of HE episodes during the study: 3, value in parentheses: (1.5) 90
  Subjects with total number of HE episodes during the study: 4, value in parentheses: (0.8) 90
  Subjects with total number of HE episodes during the study: 5, value in parentheses: (0.4) 90
  Subjects with total number of HE episodes during the study: 6, value in parentheses: (0.4) 90
  Subjects with total number of HE episodes during the study: 10, value in parentheses: (0.8) 90
  Subjects with ≥1 breakthrough overt HE episode, value in parentheses: (27.1) 90
[3]; [8]
  reduction in risk of breakthrough overt HE during rifaximin treatment vs prior placebo experience: 70%
  subjects with breakthrough overt HE during rifaximin treatment (of 82): 15
[3]; second study
  subjects with 3 or more breakthrough HE episodes: Ten
[3]; [9]
  proportion of subjects with breakthrough overt HE: 27.1%
  subjects with breakthrough overt HE (of 266): 72
[3]; [10]
  proportion of subjects with breakthrough overt HE: 25.7%
  subjects with breakthrough overt HE (of 70): 18
[3]; [11]
  proportion of subjects with breakthrough overt HE: 27.6%
  subjects with breakthrough overt HE (of 196): 54
[4]
  all cause hospitalization rate: 0.60 event/PEY
  subjects hospitalized due HE episodes (HE-caused): 59
[4]; all rifaximin
  subjects hospitalized for any cause (of 266): 133
[4]; continuing rifaximin group
  subjects hospitalized for any cause: 35
[4]; new rifaximin group
  subjects hospitalized for any cause: 98
clinical
  Cmax: 52.2 ng/mL and 66.4 nM
